Results as given in PubChem BioAssay AID256 (DTP/NCI, 2004).
“And” between values parts separate entries of the source, which are not always exact repeats. Equal values may be shown once. Toxic doses and inconclusive results are not listed. Rule for the calls: active = survival T/C of 150% or more; inactive = T/C below 125% in these data.

Tested on: CD2F1 mice, L1210 leukemia ip, survival T/C
Experiment: NCI In Vivo Anticancer Drug Screen. Data for tumor model L1210 Leukemia (intraperitoneal) in CD2F1 (CDF1) mice
Conditions: higher = longer survival
In short: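 Implant tumor; dose compound or vehicle; measure endpoint in both groups; report treated divided by control.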

[1] = endpoint: mean survival time, dose: 100.0 mg/kg/injection, schedule: Q01DX001 (ip), vehicle: Klucel (hydroxypropylcellulose) (HPC)
[2] = endpoint: mean survival time, dose: 200.0 mg/kg/injection, schedule: Q01DX001 (ip), vehicle: Klucel (hydroxypropylcellulose) (HPC)
[3] = endpoint: mean survival time, dose: 400.0 mg/kg/injection, schedule: Q01DX001 (ip), vehicle: Klucel (hydroxypropylcellulose) (HPC)
[4] = endpoint: mean survival time, dose: 50.0 mg/kg/injection, schedule: Q01DX009 (ip), vehicle: saline with Tween-80
[5] = endpoint: mean survival time, dose: 100.0 mg/kg/injection, schedule: Q01DX009 (ip), vehicle: saline with Tween-80
[6] = endpoint: mean survival time, dose: 100.0 mg/kg/injection, schedule: Q04DX003 (ip), vehicle: saline with Tween-80
[7] = endpoint: mean survival time, dose: 200.0 mg/kg/injection, schedule: Q04DX003 (ip), vehicle: saline with Tween-80
[8] = endpoint: mean survival time, dose: 25.0 mg/kg/injection, schedule: Q01DX005 (ip), vehicle: distilled water + Tween-80
[9] = endpoint: mean survival time, dose: 50.0 mg/kg/injection, schedule: Q01DX005 (ip), vehicle: distilled water + Tween-80
[10] = endpoint: mean survival time, dose: 100.0 mg/kg/injection, schedule: Q01DX005 (ip), vehicle: distilled water + Tween-80
[11] = endpoint: mean survival time, dose: 200.0 mg/kg/injection, schedule: Q01DX005 (ip), vehicle: distilled water + Tween-80
[12] = endpoint: mean survival time, dose: 200.0 mg/kg/injection, schedule: Q01DX009 (ip), vehicle: saline with Tween-80
[13] = endpoint: mean survival time, dose: 400.0 mg/kg/injection, schedule: Q01DX009 (ip), vehicle: saline with Tween-80
[14] = endpoint: mean survival time, dose: 400.0 mg/kg/injection, schedule: Q04DX003 (ip), vehicle: saline with Tween-80
[15] = endpoint: mean survival time, dose: 100.0 mg/kg/injection, schedule: Q01DX001 (ip), vehicle: saline with Tween-80
[16] = endpoint: mean survival time, dose: 200.0 mg/kg/injection, schedule: Q01DX001 (ip), vehicle: saline with Tween-80
[17] = endpoint: mean survival time, dose: 400.0 mg/kg/injection, schedule: Q01DX001 (ip), vehicle: saline with Tween-80
[18] = endpoint: mean survival time, dose: 100.0 mg/kg/injection, schedule: Q04DX002 (ip), vehicle: saline with Tween-80
[19] = endpoint: mean survival time, dose: 200.0 mg/kg/injection, schedule: Q04DX002 (ip), vehicle: saline with Tween-80
[20] = endpoint: mean survival time, dose: 400.0 mg/kg/injection, schedule: Q04DX002 (ip), vehicle: saline with Tween-80

Measured: T/C

BrC1=C(c2ccccc2)C2CCCCC2C1(Br)c1ccccc1 (stereo not given)
inactive: [1] 98 % of control | [2] 102 % of control | [3] 102 % of control

O=C(O)Cc1ccccc1C(=O)O.[Pb]
inactive: [4] 102 % of control | [5] 102 % of control | [6] 93 % of control | [7] 98 % of control

O=c1n(C2OC(CO)C(O)C2O)ccc2nnnn12 (stereo not given)
inactive: endpoint: mean survival time, dose: 12.5 mg/kg/injection, schedule: Q01DX005 (ip), vehicle: distilled water + Tween-80 100 % of control | [8] 96 % of control | [9] 100 % of control | [10] 96 % of control | [11] 102 % of control

C[N+]1(O)C2CCC1CC(O)C2 (stereo not given)
inactive: [1] 97 % of control | [2] 104 % of control | [3] 97 % of control

O=C(Oc1cccc(OC(=O)c2ccccc2)c1)c1ccccc1
inactive: [5] 100 % of control | [12] 97 % of control | [13] 95 % of control

CN(C)P1(=S)NCC(C(C)(C)C)CO1 (stereo not given)
inactive: endpoint: mean survival time, dose: 15.63 mg/kg/injection, schedule: Q01DX001 (ip), vehicle: distilled water + Tween-80 103 % of control | endpoint: mean survival time, dose: 31.25 mg/kg/injection, schedule: Q01DX001 (ip), vehicle: distilled water + Tween-80 103 % of control | endpoint: mean survival time, dose: 62.5 mg/kg/injection, schedule: Q01DX001 (ip), vehicle: distilled water + Tween-80 103 % of control | endpoint: mean survival time, dose: 125.0 mg/kg/injection, schedule: Q01DX001 (ip), vehicle: distilled water + Tween-80 97 % of control | endpoint: mean survival time, dose: 250.0 mg/kg/injection, schedule: Q01DX001 (ip), vehicle: distilled water + Tween-80 92 % of control

O=C1OC(=O)[C@H]2[C@@H]1[C@H]1C=C[C@@H]2OC1=O
inactive: endpoint: median survival time, dose: 12.5 mg/kg/injection, schedule: Q01DX009 (ip), vehicle: saline 98 % of control | endpoint: median survival time, dose: 25.0 mg/kg/injection, schedule: Q01DX009 (ip), vehicle: saline 104 % of control | endpoint: median survival time, dose: 50.0 mg/kg/injection, schedule: Q01DX009 (ip), vehicle: saline 104 % of control | endpoint: median survival time, dose: 100.0 mg/kg/injection, schedule: Q01DX009 (ip), vehicle: saline 104 % of control | endpoint: median survival time, dose: 200.0 mg/kg/injection, schedule: Q01DX009 (ip), vehicle: saline 96 % of control

COCCN1CCC(C)(CO)C1 (stereo not given)
inactive: endpoint: mean survival time, dose: 100.0 mg/kg/injection, schedule: Q01DX009 (ip), vehicle: saline 94 % of control | endpoint: mean survival time, dose: 200.0 mg/kg/injection, schedule: Q01DX009 (ip), vehicle: saline 94 % of control | endpoint: mean survival time, dose: 400.0 mg/kg/injection, schedule: Q01DX009 (ip), vehicle: saline 100 % of control

CCOC(=O)c1cnc2c(cnn2CC)c1N1CCCCC1
inactive: endpoint: mean survival time, dose: 100.0 mg/kg/injection, schedule: Q04DX003 (ip), vehicle: Klucel (hydroxypropylcellulose) (HPC) 89 % of control | endpoint: mean survival time, dose: 200.0 mg/kg/injection, schedule: Q04DX003 (ip), vehicle: Klucel (hydroxypropylcellulose) (HPC) 97 % of control

CC(Cl)CN(CC(C)Cl)c1ccc(S(=O)(=O)Nc2ncccn2)cc1 (stereo not given)
inactive: endpoint: mean survival time, dose: 35.0 mg/kg/injection, schedule: Q01DX009 (ip), vehicle: other 114 % of control

CCCNC(=O)Oc1ccc(Br)cc1Br
inactive: endpoint: mean survival time, dose: 50.0 mg/kg/injection, schedule: Q01DX009 (ip), vehicle: Klucel (hydroxypropylcellulose) (HPC) 108 % of control | endpoint: mean survival time, dose: 100.0 mg/kg/injection, schedule: Q01DX009 (ip), vehicle: Klucel (hydroxypropylcellulose) (HPC) 97 % of control | endpoint: mean survival time, dose: 200.0 mg/kg/injection, schedule: Q01DX009 (ip), vehicle: Klucel (hydroxypropylcellulose) (HPC) 94 % of control

O=C1c2ccccc2C(=O)c2c(NCCCCCO)ccc(NCCCCCO)c21
inactive: endpoint: mean survival time, dose: 16.0 mg/kg/injection, schedule: Q01DX009 (ip), vehicle: Klucel (hydroxypropylcellulose) (HPC) 102 % of control | endpoint: mean survival time, dose: 32.0 mg/kg/injection, schedule: Q01DX009 (ip), vehicle: Klucel (hydroxypropylcellulose) (HPC) 93 % of control | endpoint: mean survival time, dose: 64.0 mg/kg/injection, schedule: Q01DX009 (ip), vehicle: Klucel (hydroxypropylcellulose) (HPC) 96 % of control | endpoint: mean survival time, dose: 128.0 mg/kg/injection, schedule: Q01DX009 (ip), vehicle: Klucel (hydroxypropylcellulose) (HPC) 96 % of control | endpoint: mean survival time, dose: 256.0 mg/kg/injection, schedule: Q01DX009 (ip), vehicle: Klucel (hydroxypropylcellulose) (HPC) 104 % of control

N#CCCOCCNCCSC(=O)c1ccccc1
inactive: [6] 95 % of control | [7] 101 % of control | [14] 95 % of control

CC(=O)OCC1OC(n2ncc3c(N4CC4)ncnc32)C(OC(C)=O)C1OC(C)=O (stereo not given)
inactive: [8] 97 % of control | [9] 99 % of control | [10] 101 % of control | [11] 100 % of control | endpoint: mean survival time, dose: 400.0 mg/kg/injection, schedule: Q01DX005 (ip), vehicle: distilled water + Tween-80 97 % of control

CN(Cc1cnc2nc(N)nc(N)c2n1)c1ccc(C(=O)NC(CCC(=O)OC(C)(C)C)C(=O)OC(C)(C)C)cc1 (stereo not given)
inactive: endpoint: mean survival time, dose: 1.56 mg/kg/injection, schedule: Q01DX009 (ip), vehicle: saline with Tween-80 112 % of control | endpoint: mean survival time, dose: 3.12 mg/kg/injection, schedule: Q01DX009 (ip), vehicle: saline with Tween-80 121 % of control | endpoint: mean survival time, dose: 4.5 mg/kg/injection, schedule: Q01DX009 (ip), vehicle: saline with Tween-80 111 % of control

O=C1CCC([N+](=O)[O-])C(c2cccc3ccccc23)N1 (stereo not given)
inactive: [15] 94 % of control | [16] 94 % of control | [17] 97 % of control

c1ccc(CNc2nnnn2C2CCCCC2)cc1
inactive: endpoint: mean survival time, dose: 25.0 mg/kg/injection, schedule: Q04DX002 (ip), vehicle: saline with Tween-80 95 % of control | endpoint: mean survival time, dose: 50.0 mg/kg/injection, schedule: Q04DX002 (ip), vehicle: saline with Tween-80 91 % of control | [18] 102 % of control

Cc1ccc(NC(=O)Nc2cccc(NC(=O)COc3ccc(Cl)cc3C(=O)O)c2)cc1S(=O)(=O)F
inactive: [15] 88 % of control | [16] 86 % of control | [17] 89 % of control

CCSC(CC(O)C(O)C(O)CO)n1cnc2c(Cl)ncnc21 (stereo not given)
inactive: endpoint: mean survival time, dose: 12.5 mg/kg/injection, schedule: Q01DX005 (ip), vehicle: water 100 % of control | endpoint: mean survival time, dose: 25.0 mg/kg/injection, schedule: Q01DX005 (ip), vehicle: water 105 % of control | endpoint: mean survival time, dose: 50.0 mg/kg/injection, schedule: Q01DX005 (ip), vehicle: water 102 % of control | endpoint: mean survival time, dose: 100.0 mg/kg/injection, schedule: Q01DX005 (ip), vehicle: water 107 % of control | endpoint: mean survival time, dose: 200.0 mg/kg/injection, schedule: Q01DX005 (ip), vehicle: water 104 % of control

O=C1c2cccc(O)c2C(=O)c2c(O)cc(CO)cc21
inactive: endpoint: mean survival time, dose: 1.25 mg/kg/injection, schedule: Q01DX009 (ip), vehicle: other 96 % of control | endpoint: mean survival time, dose: 2.5 mg/kg/injection, schedule: Q01DX009 (ip), vehicle: other 102 % of control | endpoint: mean survival time, dose: 5.0 mg/kg/injection, schedule: Q01DX009 (ip), vehicle: other 96 % of control | endpoint: mean survival time, dose: 10.0 mg/kg/injection, schedule: Q01DX009 (ip), vehicle: other 102 % of control

COc1cc([N+](=O)[O-])ccc1NC(=O)Nc1nccs1
inactive: [4] 96 % of control and 97 % of control | [15] 97 % of control | [18] 87 % of control | [6] 98 % of control | [16] 92 % of control | [12] 95 % of control and 100 % of control and 104 % of control | [19] 95 % of control | [7] 95 % of control | [17] 100 % of control | [13] 97 % of control | [20] 102 % of control | [14] 101 % of control

Cc1ccc(C)c(OC(=O)Nc2cccc3ccccc23)c1
inactive: [18] 91 % of control | [19] 91 % of control | [20] 91 % of control

O=c1cnn(C2OC(CO)C(O)C2O)c(=S)[nH]1 (stereo not given)
inactive: [5] 123 % of control | endpoint: mean survival time, dose: 100.0 mg/kg/injection, schedule: Q04DX003 (ip), vehicle: saline sonified 102 % of control | [12] 107 % of control | endpoint: mean survival time, dose: 200.0 mg/kg/injection, schedule: Q04DX003 (ip), vehicle: saline sonified 104 % of control | [13] 112 % of control | endpoint: mean survival time, dose: 400.0 mg/kg/injection, schedule: Q04DX003 (ip), vehicle: saline sonified 96 % of control

COc1cnnc2ccccc12
inactive: [6] 104 % of control | [7] 103 % of control | [14] 92 % of control
